According to paper PMC13351859 (Biophysical Journal, 2026):

Target: T1, LASV FD (Lassa virus fusion domain, G260-N295) (Lassa virus Josiah, UniProt P08669)
T1 construct: gene GPC
Assay: biochemical
Assay type: binding

T1 sequence (P08669 260-295 limits assumed): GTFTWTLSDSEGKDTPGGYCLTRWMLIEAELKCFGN

CCCCCCCC/C=C\CCCCCCCC(=O)O[C@H](COC(=O)CCCCCCCCCCCCCCC)COP(=O)([O-])OCC[N+](C)(C)C [POPC, 1-palmitoyl-2-oleoyl-glycero-3-phosphocholine] gave a Kd of 657 ± 17 µM.
